# Test results reported in PubChem BioAssay (NCI).
#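 The compound was tested at five concentrations on cells cultured in 96-well plates, with a 48-hour exposure period. At the TGI there is no net growth.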
# Key:
# Test in all cases: growth of human tumour cells (NCI), 48 h
# UO-31 renal = tested on: UO-31 renal
# SK-MEL-28 melanoma = tested on: SK-MEL-28 melanoma
# SK-MEL-5 melanoma = tested on: SK-MEL-5 melanoma
# PC-3 prostate = tested on: PC-3 prostate
# UACC-257 melanoma = tested on: UACC-257 melanoma
# LOX IMVI melanoma = tested on: LOX IMVI melanoma
# HL-60(TB) leukemia = tested on: HL-60(TB) leukemia
# K-562 leukemia = tested on: K-562 leukemia
# OVCAR-8 ovarian = tested on: OVCAR-8 ovarian
# SF-295 CNS = tested on: SF-295 CNS
# SK-OV-3 ovarian = tested on: SK-OV-3 ovarian
# HS 578T breast = tested on: HS 578T breast
# 786-0 renal = tested on: 786-0 renal
# CAKI-1 renal = tested on: CAKI-1 renal
# RPMI-8226 leukemia = tested on: RPMI-8226 leukemia
# SK-MEL-2 melanoma = tested on: SK-MEL-2 melanoma
# HCC-2998 colon = tested on: HCC-2998 colon
# RXF 393 renal = tested on: RXF 393 renal
# SNB-75 CNS = tested on: SNB-75 CNS
# COLO 205 colon = tested on: COLO 205 colon
# HT29 colon = tested on: HT29 colon
# MDA-MB-435 = tested on: MDA-MB-435
# HCT-15 colon = tested on: HCT-15 colon
# SNB-19 CNS = tested on: SNB-19 CNS
# BT-549 breast = tested on: BT-549 breast
# ACHN renal = tested on: ACHN renal
# NCI-H226 lung = tested on: NCI-H226 lung
# HOP-62 NSCLC = tested on: HOP-62 NSCLC
# HCT-116 colon = tested on: HCT-116 colon
# OVCAR-4 ovarian = tested on: OVCAR-4 ovarian
# MOLT-4 leukemia = tested on: MOLT-4 leukemia
# DU-145 prostate = tested on: DU-145 prostate
# EKVX NSCLC = tested on: EKVX NSCLC
# MDA-N = tested on: MDA-N
# UACC-62 melanoma = tested on: UACC-62 melanoma
# MCF7 breast = tested on: MCF7 breast
# SW-620 colon = tested on: SW-620 colon
# NCI-H522 lung = tested on: NCI-H522 lung
# KM12 colon = tested on: KM12 colon
# SF-539 CNS = tested on: SF-539 CNS
# T-47D breast = tested on: T-47D breast
# A549 NSCLC = tested on: A549 NSCLC
# NCI-H23 lung = tested on: NCI-H23 lung
# M14 melanoma = tested on: M14 melanoma
# HOP-92 NSCLC = tested on: HOP-92 NSCLC
# A498 renal = tested on: A498 renal
# CCRF-CEM leukemia = tested on: CCRF-CEM leukemia
# NCI-H460 lung = tested on: NCI-H460 lung
# SN12C renal = tested on: SN12C renal
# SF-268 CNS = tested on: SF-268 CNS
# NCI/ADR-RES ovarian = tested on: NCI/ADR-RES ovarian
# IGROV1 ovarian = tested on: IGROV1 ovarian
# OVCAR-5 ovarian = tested on: OVCAR-5 ovarian
# U251 CNS = tested on: U251 CNS
# TK-10 renal = tested on: TK-10 renal
# OVCAR-3 ovarian = tested on: OVCAR-3 ovarian
# MDA-MB-231 breast = tested on: MDA-MB-231 breast
# SR leukemia = tested on: SR leukemia
# MALME-3M melanoma = tested on: MALME-3M melanoma
smiles,measurement,setting,value
Nc1nc(N)c2nn(-c3ccc(C(=O)O)cc3)nc2n1,TGI,UO-31 renal,> 100 µM
same,TGI,SK-MEL-28 melanoma,> 100 µM
same,TGI,SK-MEL-5 melanoma,> 100 µM
same,TGI,PC-3 prostate,> 100 µM
same,TGI,UACC-257 melanoma,> 100 µM
same,TGI,LOX IMVI melanoma,> 100 µM
same,TGI,HL-60(TB) leukemia,> 100 µM
same,TGI,K-562 leukemia,> 100 µM
same,TGI,OVCAR-8 ovarian,> 100 µM
same,TGI,SF-295 CNS,> 100 µM
same,TGI,SK-OV-3 ovarian,> 100 µM
same,TGI,HS 578T breast,> 100 µM
same,TGI,786-0 renal,> 100 µM
same,TGI,CAKI-1 renal,> 100 µM
same,TGI,RPMI-8226 leukemia,> 100 µM
same,TGI,SK-MEL-2 melanoma,> 100 µM
same,TGI,HCC-2998 colon,> 100 µM
same,TGI,RXF 393 renal,> 100 µM
same,TGI,SNB-75 CNS,> 100 µM
same,TGI,COLO 205 colon,> 100 µM
same,TGI,HT29 colon,> 100 µM
same,TGI,MDA-MB-435,> 100 µM
same,TGI,HCT-15 colon,> 100 µM
same,TGI,SNB-19 CNS,> 100 µM
same,TGI,BT-549 breast,> 100 µM
same,TGI,ACHN renal,> 100 µM
same,TGI,NCI-H226 lung,> 100 µM
same,TGI,HOP-62 NSCLC,> 100 µM
same,TGI,HCT-116 colon,> 100 µM
same,TGI,OVCAR-4 ovarian,> 100 µM
same,TGI,MOLT-4 leukemia,> 100 µM
same,TGI,DU-145 prostate,> 100 µM
same,TGI,EKVX NSCLC,> 100 µM
same,TGI,MDA-N,> 100 µM
same,TGI,UACC-62 melanoma,> 100 µM
same,TGI,MCF7 breast,> 100 µM
same,TGI,SW-620 colon,> 100 µM
same,TGI,NCI-H522 lung,> 100 µM
same,TGI,KM12 colon,> 100 µM
same,TGI,SF-539 CNS,> 100 µM
same,TGI,T-47D breast,> 100 µM
same,TGI,A549 NSCLC,> 100 µM
same,TGI,NCI-H23 lung,> 100 µM
same,TGI,M14 melanoma,> 100 µM
same,TGI,HOP-92 NSCLC,> 100 µM
same,TGI,A498 renal,> 100 µM
same,TGI,CCRF-CEM leukemia,> 100 µM
same,TGI,NCI-H460 lung,> 100 µM
same,TGI,SN12C renal,> 100 µM
same,TGI,SF-268 CNS,> 100 µM
same,TGI,NCI/ADR-RES ovarian,> 100 µM
same,TGI,IGROV1 ovarian,> 100 µM
same,TGI,OVCAR-5 ovarian,> 100 µM
same,TGI,U251 CNS,> 100 µM
same,TGI,TK-10 renal,> 100 µM
same,TGI,OVCAR-3 ovarian,> 100 µM
same,TGI,MDA-MB-231 breast,> 100 µM
Clc1ccc(CCN2CCN(CCCc3ccccc3)CC2)cc1Cl,TGI,UO-31 renal,24.7 µM
same,TGI,SK-MEL-28 melanoma,37.5 µM
same,TGI,SK-MEL-5 melanoma,29.9 µM
same,TGI,PC-3 prostate,31.6 µM
same,TGI,UACC-257 melanoma,31.3 µM
same,TGI,LOX IMVI melanoma,31.5 µM
same,TGI,HL-60(TB) leukemia,44.7 µM
same,TGI,K-562 leukemia,> 100 µM
same,TGI,OVCAR-8 ovarian,30.4 µM
same,TGI,SF-295 CNS,30 µM
same,TGI,SK-OV-3 ovarian,35.1 µM
same,TGI,SR leukemia,78.8 µM
same,TGI,HS 578T breast,44.9 µM
same,TGI,786-0 renal,30.2 µM
same,TGI,CAKI-1 renal,33.8 µM
same,TGI,RPMI-8226 leukemia,55.2 µM
same,TGI,SK-MEL-2 melanoma,36.4 µM
same,TGI,HCC-2998 colon,31.3 µM
same,TGI,COLO 205 colon,31.6 µM
same,TGI,HT29 colon,26.9 µM
same,TGI,MDA-MB-435,31.1 µM
same,TGI,HCT-15 colon,27.8 µM
same,TGI,SNB-19 CNS,30.8 µM
same,TGI,BT-549 breast,29.4 µM
same,TGI,ACHN renal,39.4 µM
same,TGI,NCI-H226 lung,38 µM
same,TGI,HOP-62 NSCLC,35.8 µM
same,TGI,HCT-116 colon,28.4 µM
same,TGI,OVCAR-4 ovarian,31.4 µM
same,TGI,MOLT-4 leukemia,> 100 µM
same,TGI,DU-145 prostate,30.4 µM
same,TGI,EKVX NSCLC,32.9 µM
same,TGI,MDA-N,31.4 µM
same,TGI,UACC-62 melanoma,31.5 µM
same,TGI,MCF7 breast,33.8 µM
same,TGI,SW-620 colon,51.6 µM
same,TGI,NCI-H522 lung,36.7 µM
same,TGI,KM12 colon,32.1 µM
same,TGI,SF-539 CNS,32.4 µM
same,TGI,T-47D breast,35.1 µM
same,TGI,A549 NSCLC,29.9 µM
same,TGI,NCI-H23 lung,31.6 µM
same,TGI,M14 melanoma,28.1 µM
same,TGI,HOP-92 NSCLC,23.6 µM
same,TGI,A498 renal,30 µM
same,TGI,CCRF-CEM leukemia,> 100 µM
same,TGI,NCI-H460 lung,33.5 µM
same,TGI,SN12C renal,29.8 µM
same,TGI,SF-268 CNS,35.3 µM
same,TGI,NCI/ADR-RES ovarian,28.5 µM
same,TGI,IGROV1 ovarian,31.3 µM
same,TGI,OVCAR-5 ovarian,29.9 µM
same,TGI,U251 CNS,31.9 µM
same,TGI,MALME-3M melanoma,33.8 µM
same,TGI,TK-10 renal,30.1 µM
same,TGI,OVCAR-3 ovarian,30.9 µM
same,TGI,MDA-MB-231 breast,30.8 µM
